According to PubChem BioAssay (NCI):
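Exposure lasted 48 hours, with cells grown in 96-well plates and compounds tested at five concentrations. GI50: concentration for 50% inhibition of growth. TGI: total growth inhibition.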

Assays:
Test in all cases: inhibition of tumour cell growth, NCI panel, 48 h
786-0 renal = tested on: 786-0 renal
A498 renal = tested on: A498 renal
A549 NSCLC = tested on: A549 NSCLC
ACHN renal = tested on: ACHN renal
BT-549 breast = tested on: BT-549 breast
CAKI-1 renal = tested on: CAKI-1 renal
CCRF-CEM leukemia = tested on: CCRF-CEM leukemia
COLO 205 colon = tested on: COLO 205 colon
DU-145 prostate = tested on: DU-145 prostate
EKVX NSCLC = tested on: EKVX NSCLC
HCC-2998 colon = tested on: HCC-2998 colon
HCT-116 colon = tested on: HCT-116 colon
HCT-15 colon = tested on: HCT-15 colon
HL-60(TB) leukemia = tested on: HL-60(TB) leukemia
HOP-62 NSCLC = tested on: HOP-62 NSCLC
HOP-92 NSCLC = tested on: HOP-92 NSCLC
HS 578T breast = tested on: HS 578T breast
HT29 colon = tested on: HT29 colon
IGROV1 ovarian = tested on: IGROV1 ovarian
K-562 leukemia = tested on: K-562 leukemia
KM12 colon = tested on: KM12 colon
LOX IMVI melanoma = tested on: LOX IMVI melanoma
M14 melanoma = tested on: M14 melanoma
MALME-3M melanoma = tested on: MALME-3M melanoma
MCF7 breast = tested on: MCF7 breast
MDA-MB-231 breast = tested on: MDA-MB-231 breast
MDA-MB-435 = tested on: MDA-MB-435
MOLT-4 leukemia = tested on: MOLT-4 leukemia
NCI-H226 lung = tested on: NCI-H226 lung
NCI-H23 lung = tested on: NCI-H23 lung
NCI-H460 lung = tested on: NCI-H460 lung
NCI-H522 lung = tested on: NCI-H522 lung
NCI/ADR-RES ovarian = tested on: NCI/ADR-RES ovarian
OVCAR-4 ovarian = tested on: OVCAR-4 ovarian
OVCAR-5 ovarian = tested on: OVCAR-5 ovarian
OVCAR-8 ovarian = tested on: OVCAR-8 ovarian
PC-3 prostate = tested on: PC-3 prostate
RPMI-8226 leukemia = tested on: RPMI-8226 leukemia
RXF 393 renal = tested on: RXF 393 renal
SF-268 CNS = tested on: SF-268 CNS
SF-295 CNS = tested on: SF-295 CNS
SF-539 CNS = tested on: SF-539 CNS
SK-MEL-28 melanoma = tested on: SK-MEL-28 melanoma
SK-MEL-5 melanoma = tested on: SK-MEL-5 melanoma
SK-OV-3 ovarian = tested on: SK-OV-3 ovarian
SN12C renal = tested on: SN12C renal
SNB-19 CNS = tested on: SNB-19 CNS
SNB-75 CNS = tested on: SNB-75 CNS
SR leukemia = tested on: SR leukemia
SW-620 colon = tested on: SW-620 colon
T-47D breast = tested on: T-47D breast
TK-10 renal = tested on: TK-10 renal
U251 CNS = tested on: U251 CNS
UACC-257 melanoma = tested on: UACC-257 melanoma
UACC-62 melanoma = tested on: UACC-62 melanoma
UO-31 renal = tested on: UO-31 renal

Which results are given for `COc1ccc(/C=N\NC(=O)c2ccc3nc(-c4ccc(Br)cc4)[nH]c3c2)cc1`?
GI50 (786-0 renal): 2.05 µM; TGI (786-0 renal): 4.2 µM; GI50 (A498 renal): 2.26 µM; TGI (A498 renal): 5.25 µM; GI50 (A549 NSCLC): 2.42 µM; TGI (A549 NSCLC): 6.03 µM; GI50 (ACHN renal): 2.27 µM; TGI (ACHN renal): 6.22 µM; GI50 (BT-549 breast): 2.64 µM; TGI (BT-549 breast): 7.06 µM; GI50 (CAKI-1 renal): 2.31 µM; TGI (CAKI-1 renal): 6.67 µM; GI50 (CCRF-CEM leukemia): 6.91 µM; TGI (CCRF-CEM leukemia): > 100 µM; GI50 (COLO 205 colon): 1.94 µM; TGI (COLO 205 colon): 5.36 µM; GI50 (DU-145 prostate): 3.07 µM; TGI (DU-145 prostate): 9.39 µM; GI50 (EKVX NSCLC): 2.22 µM; TGI (EKVX NSCLC): 5.27 µM; GI50 (HCC-2998 colon): 3.06 µM; TGI (HCC-2998 colon): 9.13 µM; GI50 (HCT-116 colon): 2.65 µM; TGI (HCT-116 colon): 6.07 µM; GI50 (HCT-15 colon): 3.7 µM; TGI (HCT-15 colon): 22.9 µM; GI50 (HL-60(TB) leukemia): 36.6 µM; TGI (HL-60(TB) leukemia): > 100 µM; GI50 (HOP-62 NSCLC): 1.87 µM; TGI (HOP-62 NSCLC): 4.21 µM; GI50 (HOP-92 NSCLC): 1.9 µM; TGI (HOP-92 NSCLC): 4.65 µM; GI50 (HS 578T breast): 2.34 µM; TGI (HS 578T breast): 5.47 µM; GI50 (HT29 colon): 1.7 µM; TGI (HT29 colon): 3.3 µM; GI50 (IGROV1 ovarian): 2.22 µM; TGI (IGROV1 ovarian): 7.24 µM; GI50 (K-562 leukemia): 2.89 µM; TGI (K-562 leukemia): 10.4 µM; GI50 (KM12 colon): 3.19 µM; TGI (KM12 colon): 12.8 µM; GI50 (LOX IMVI melanoma): 1.93 µM; TGI (LOX IMVI melanoma): 4.17 µM; GI50 (M14 melanoma): 2.63 µM; TGI (M14 melanoma): 7.47 µM; GI50 (MALME-3M melanoma): 1.76 µM; TGI (MALME-3M melanoma): 3.79 µM; GI50 (MCF7 breast): 1.92 µM; TGI (MCF7 breast): 5.81 µM; GI50 (MDA-MB-231 breast): 2.43 µM; TGI (MDA-MB-231 breast): 5.93 µM; GI50 (MDA-MB-435): 2.91 µM; TGI (MDA-MB-435): 8.11 µM; GI50 (MOLT-4 leukemia): 4.3 µM; TGI (MOLT-4 leukemia): > 100 µM; GI50 (NCI-H226 lung): 2.65 µM; TGI (NCI-H226 lung): 16.8 µM; GI50 (NCI-H23 lung): 2.43 µM; TGI (NCI-H23 lung): 6.05 µM; GI50 (NCI-H460 lung): 1.74 µM; TGI (NCI-H460 lung): 3.37 µM; GI50 (NCI-H522 lung): 2.59 µM; TGI (NCI-H522 lung): 11.2 µM; GI50 (NCI/ADR-RES ovarian): 17.8 µM; TGI (NCI/ADR-RES ovarian): > 100 µM; GI50 (OVCAR-4 ovarian): 2.14 µM; TGI (OVCAR-4 ovarian): 5.16 µM; GI50 (OVCAR-5 ovarian): 2.68 µM; TGI (OVCAR-5 ovarian): 7.27 µM; GI50 (OVCAR-8 ovarian): 2.2 µM; TGI (OVCAR-8 ovarian): 5.16 µM; GI50 (PC-3 prostate): 1.79 µM; TGI (PC-3 prostate): 3.72 µM; GI50 (RPMI-8226 leukemia): 2.12 µM; TGI (RPMI-8226 leukemia): 8.38 µM; GI50 (RXF 393 renal): 1.62 µM; TGI (RXF 393 renal): 3.49 µM; GI50 (SF-268 CNS): 2.31 µM; TGI (SF-268 CNS): 5.93 µM; GI50 (SF-295 CNS): 1.99 µM; TGI (SF-295 CNS): 4.27 µM; GI50 (SF-539 CNS): 1.76 µM; TGI (SF-539 CNS): 3.47 µM; GI50 (SK-MEL-28 melanoma): 1.98 µM; TGI (SK-MEL-28 melanoma): 4.1 µM; GI50 (SK-MEL-5 melanoma): 2.03 µM; TGI (SK-MEL-5 melanoma): 4.38 µM; GI50 (SK-OV-3 ovarian): 2.37 µM; TGI (SK-OV-3 ovarian): 15.5 µM; GI50 (SN12C renal): 2.4 µM; TGI (SN12C renal): 5.94 µM; GI50 (SNB-19 CNS): 2.81 µM; TGI (SNB-19 CNS): 7.39 µM; GI50 (SNB-75 CNS): 1.93 µM; TGI (SNB-75 CNS): 4.69 µM; GI50 (SR leukemia): 2.1 µM; TGI (SR leukemia): 6.28 µM; GI50 (SW-620 colon): 2.17 µM; TGI (SW-620 colon): 4.64 µM; GI50 (T-47D breast): 1.85 µM; TGI (T-47D breast): 4.31 µM; GI50 (TK-10 renal): 2.38 µM; TGI (TK-10 renal): 5.06 µM; GI50 (U251 CNS): 1.94 µM; TGI (U251 CNS): 3.55 µM; GI50 (UACC-257 melanoma): 2.14 µM; TGI (UACC-257 melanoma): 4.78 µM; GI50 (UACC-62 melanoma): 2.51 µM; TGI (UACC-62 melanoma): 7.2 µM; GI50 (UO-31 renal): 1.7 µM; TGI (UO-31 renal): 5.44 µM
